Consider 1 molecule from article PMC5539244, “2-Oxoesters: A Novel Class of Potent and Selective Inhibitors of Cytosolic Group IVA Phospholipase A2” (Scientific Reports, 2017).

In data set [1] the test system is RAW264.7 macrophages. Put plainly: cellular toxicity by trypan blue exclusion. It counts as cell-based, murine. Conditions: any concentration tested, data not shown.
The nature of another data set: logP measured by HPLC. It counts as physicochemical.
Data set [2] deals with RAW264.7 macrophages. The data set is described as follows: KLA-elicited eicosanoid production in macrophages (LC-MS/MS). Type of data set: cell-based, murine. The note with it: 5 μM inhibitor 1 h before KLA 100 ng/mL; supernatant at 24 h. As to the method:
It is well established that the toll-like receptor 4 (TLR4)-specific agonist Kdo2-lipid A (KLA) leads to GIVA cPLA2 activation, [52] and release of arachidonic acid in macrophages that is then converted into eicosanoids by cyclooxygenase-2[53]–[55]. […] The high levels of PGD2 compared to background in culture supernatants following KLA stimulation makes it an ideal marker for GIVA cPLA2 activity in macrophages. […] RAW264.7 macrophages were pre-treated with vehicle control, DMSO or 17f (5 μM) for one hour prior to stimulation with KLA (100 ng/mL). Culture supernatants were collected after 24 hours for eicosanoid quantification by LC-MS/MS.
Figure 8 Inhibitor 17f inhibits KLA-elicited prostaglandin D2 biosynthesis by macrophages. […] Supernatants were collected 24 hr following stimulation for eicosanoid quantification.
RAW264.7 murine macrophage cells (ATCC #TIB-71) were maintained at 37 °C, 5% CO2 in DMEM (Life Technologies 11995–065) containing 10% FBS (Gemini), 100 U/mL penicillin/streptomycin, 1 mM sodium pyruvate and 4 mM L-glutamine. […] Supernatants were collected at 24 hours for eicosanoid quantification. […] Online UPLC-electrospray ionization MS/MS quantitation of eicosanoids was performed on a QTRAP 6500 hybrid quadrupole/linear ion-trap mass spectrometer (AB Sciex) via multiple reaction monitoring (MRM) in negative ion mode. […]

Another data set has as its target T1, human GV sPLA2 (Homo sapiens, UniProt P39877).
T1 sequence (P39877 21-138): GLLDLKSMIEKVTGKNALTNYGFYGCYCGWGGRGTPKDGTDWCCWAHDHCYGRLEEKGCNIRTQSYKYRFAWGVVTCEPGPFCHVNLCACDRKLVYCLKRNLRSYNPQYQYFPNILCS
The data set is described as follows: mixed micelle assay, GV sPLA2 inhibition. Type of data set: biochemical. The note with it: read-out: GV sPLA2 % Inhibition.

Data set [3] concerns the target T2, recombinant human GIVA cPLA2 (Homo sapiens, UniProt P47712).
T2 sequence (P47712 1-749): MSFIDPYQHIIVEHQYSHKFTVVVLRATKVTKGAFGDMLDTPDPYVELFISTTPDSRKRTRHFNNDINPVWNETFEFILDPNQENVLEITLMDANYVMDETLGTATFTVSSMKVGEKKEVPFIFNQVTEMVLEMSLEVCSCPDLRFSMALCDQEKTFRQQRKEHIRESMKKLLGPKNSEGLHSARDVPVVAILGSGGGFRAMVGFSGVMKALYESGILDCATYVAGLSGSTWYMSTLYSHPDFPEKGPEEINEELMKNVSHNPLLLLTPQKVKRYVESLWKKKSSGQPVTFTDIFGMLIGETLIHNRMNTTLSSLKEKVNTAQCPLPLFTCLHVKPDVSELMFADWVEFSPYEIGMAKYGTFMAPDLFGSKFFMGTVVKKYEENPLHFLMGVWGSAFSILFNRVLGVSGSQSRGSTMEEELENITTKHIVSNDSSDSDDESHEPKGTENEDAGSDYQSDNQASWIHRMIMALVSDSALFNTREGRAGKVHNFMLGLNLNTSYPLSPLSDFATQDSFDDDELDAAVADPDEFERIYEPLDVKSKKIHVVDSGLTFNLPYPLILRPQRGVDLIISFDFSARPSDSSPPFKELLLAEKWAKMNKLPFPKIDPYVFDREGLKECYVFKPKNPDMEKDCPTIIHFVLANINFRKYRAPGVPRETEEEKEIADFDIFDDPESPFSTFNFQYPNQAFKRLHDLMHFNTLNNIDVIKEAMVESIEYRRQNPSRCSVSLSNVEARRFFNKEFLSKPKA
The data set is described as follows: mixed micelle assay, GIVA cPLA2 inhibition. Type of data set: biochemical.

`O=C(O)CCCCOC(=O)C(=O)CCCCc1ccc(-c2ccccc2)cc1` [17f, 5-((6-([1,1′-Biphenyl]-4-yl)-2-oxohexanoyl)oxy)pentanoic acid]: the cellular toxicity entry with RAW264.7 macrophages [1] is “did not show cellular toxicity”. For the same molecule, in “logP measured by HPLC”, the chromatographic logP is 3.5. Moreover, in the data set with RAW264.7 macrophages [2], the “decrease in KLA-elicited PGD2 production” value is given as “over 50%”. Besides, the inhibition at 0.091 mole fraction at human GV sPLA2 is under 25%; in data set [3] (read-out: GIVA cPLA2 % Inhibition), over 95%. In addition, in data set [3] (addition of the carboxylic moiety), the “increase in potency compared to GK174 on GIVA cPLA2” value is reported as 10 fold. The “GIVA cPLA2 X I(50)” value in data set [3] (mole fraction of inhibitor in total substrate interface giving 50% inhibition) was 0.000078 ± 0.00001 mole fraction.
